Data as given in PubChem BioAssay AID1963829 (Molecular Pharmacology Branch, DTP, NCI, 2024).
pIC50: −log10 of the molar value. Values joined by “and” are separate entries in the source; they are usually repeats but may differ in a detail not shown here. Equal values may be shown once.

Tested on: 935938-334-R-J1-PDC complex spheroid viability
Test: Anticancer human tumor 935938-334-R-J1-PDC patient-derived small intestine adenocarcinoma cell line growth inhibition [POLQ]
Conditions: for viability, T/C: stronger effect = lower value
Protocol: Multicellular complex tumor spheroid response to Polymerase (POL) inhibitors (novobiocin, ART-558, RP6685) in combination with a variety of drugs and investigational agents in selected tumor cell lines
The POL inhibitors (novobiocin, ART-558, and RP6685) were evaluated both individually and in combination with standard of care and investigational anticancer small molecules within a complex spheroid model of solid tumors. . Complex spheroids include a stromal component modeled by human endothelial cells (HUVEC) and fibroblasts modeled by human mesenchymal stem cells (MSCs). The concentration ranges selected for each drug and investigational agent were based upon clinically achievable concentrations if the clinical Cmax of the agent was known.
Compounds. The drugs and investigational agents: novobiocin (NSC847541), ART-558 (NSC835418), RP-6685 (NSC848927), peposertib (NSC802822), ceralasertib (NSC780249), elimusertib (NSC800525), camonsertib (NSC841442), AZD-1390 (NSC803789), olaparib (NSC753686), talazoparib (NSC767125), rucaparib (NSC756644), sotorasib (NSC818433), MRTX-1133 (NSC836407), SN-38 (NSC673596), topotecan (NSC609699), epotoside (NSC141540), doxorubicin (NSC123127), gemcitabine (NSC613327), 5-fluorouracil (NSC19893), paclitaxel (NSC125973), vemurafenib (NSC761431), MSA-2 (NSC828583), SN-011 (NSC837082), adavosertib (NSC754352), prexasertib (NSC758257), carboplatin (NSC241240) and oxaliplatin (NSC266046), were obtained from the National Cancer Institute (NCI) Developmental Therapeutics Program Chemical Repository (21). The FDA-approved anticancer drug set is available from the Developmental Therapeutics Program at https://dtp.cancer.gov/organization/dscb/obtaining/. […] The stock solutions were prepared in dimethyl sulfoxide (DMSO, Sigma-Aldrich, St. Louis, MO, cat. D2650), except for the platinum compounds which were prepared in saline (Quality Biological, Gaithersburg, MD, cat. 114-055-101), at 800-fold the tested concentration and stored at -70 degrees C prior to their use. All drugs and investigational agents were tested over a range starting from a high concentration at or near the clinical Cmax and decreasing in half-log increments. If the clinical Cmax for an agent had not been determined, the highest concentration tested was 10 microM, except for SN-38, which was tested at a high concentration of 1 microM.
Cell Culture. All cells were maintained in an incubator at 37 degrees C and 5% CO2 with 95% humidity. The PDC lines were cultured according to standard operating procedures established by the NCI PDMR (https://pdmr.cancer.gov). Table 3 of the manuscript, lists the cell lines along with the number of the three cell types plated to form the mct-spheroids and media for tumor cell growth. After thawing, all PDC lines, except 997537-175-T-J1-PDC and 415267-285-R-J2-PDC, were cultured in Matrigel-coated flasks prepared with a working solution of 1X Ham's F-12 nutrient mix, without supplementation (Thermo Fisher Scientific, cat. 11765054), 100 U/mL penicillin-streptomycin (Thermo Fisher Scientific, cat. 15140122), and 2.5% Matrigel (Corning Inc., Corning, NY, cat. 354248) for the first three passages. The two PDC lines 997537-175-T-J1-PDC and 415267-285-R-J2-PDC were cultured on uncoated flasks. The 857933-349-R-J2-PDC line was cultured in 6C/Colon 1B media containing advanced DMEM/F-12 (Thermo Fisher Scientific, cat. 12634028), 10 mM HEPES (Thermo Fisher Scientific, cat. 15630080), 1X GlutaMAX supplement (Thermo Fisher Scientific, cat. 35050061), 0.1 mg/mL primocin (InvivoGen, San Diego, CA, cat. ant-pm-2), 10% defined fetal bovine serum, heat inactivated (HyClone Laboratories Inc., Logan, UT, cat. SH30070.03HI), 50% L-WRN conditioned media (ATCC, cat. CRL-3276), 1.25 mM N-Acetyl-L-cysteine (Sigma-Aldrich, cat. A9165), 10 mM nicotinamide (Sigma-Aldrich, cat. N0636), 1X B-27 supplement (Thermo Fisher Scientific, cat. 17504044), 1X N-2 supplement (Thermo Fisher Scientific, cat. […]
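Also: spheroids exposed to drugs for seven days before viability read.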
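For viability, T/C in this document: 100% = DMSO vehicle control wells.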

`Cn1ncnc1[C@H]1c2n[nH]c(=O)c3cc(F)cc(c23)N[C@@H]1c1ccc(F)cc1` + COC1C(OC(N)=O)C(O)C(Oc2ccc3c(O)c(NC(=O)c4ccc(O)c(CC=C(C)C)c4)c(=O)oc3c2C)OC1(C)C gave a pIC50 (curve of first compound, second compound 0.0316 µM) of less than 7.00, a pIC50 (curve of first compound, second compound 0.1 µM) of less than 7.00 and a pIC50 (curve of first compound, second compound 0.316 µM) of less than 7.00. For the same compound, the pIC50 (curve of first compound, second compound 1 µM) was less than 7.00, the pIC50 (curve of first compound, second compound 3.16 µM) was less than 7.00 and the pIC50 (curve of first compound, second compound 10 µM) was less than 7.00. The viability, T/C (second compound 0.0316 µM, first compound 0.000316 µM) was 101%, the viability, T/C (second compound 0.0316 µM, first compound 0.001 µM) was 106% and the viability, T/C (second compound 0.0316 µM, first compound 0.00316 µM) was 85.8%. For the same compound, the viability, T/C (second compound 0.0316 µM, first compound 0.01 µM) was 83.9%, the viability, T/C (second compound 0.0316 µM, first compound 0.0316 µM) was 92.9% and the viability, T/C (second compound 0.0316 µM, first compound 0.1 µM) was 83.2%. The viability, T/C (second compound 0.1 µM, first compound 0.000316 µM) was 96.5%, the viability, T/C (second compound 0.1 µM, first compound 0.001 µM) was 113% and the viability, T/C (second compound 0.1 µM, first compound 0.00316 µM) was 103%. The viability, T/C (second compound 0.1 µM, first compound 0.01 µM) was 89.8%, the viability, T/C (second compound 0.1 µM, first compound 0.0316 µM) was 88.5% and the viability, T/C (second compound 0.1 µM, first compound 0.1 µM) was 83.5%. For the same compound, the viability, T/C (second compound 0.316 µM, first compound 0.000316 µM) was 94.7%, the viability, T/C (second compound 0.316 µM, first compound 0.001 µM) was 73.8% and the viability, T/C (second compound 0.316 µM, first compound 0.00316 µM) was 97.6%. For the same compound, the viability, T/C (second compound 0.316 µM, first compound 0.01 µM) was 115%, the viability, T/C (second compound 0.316 µM, first compound 0.0316 µM) was 103% and the viability, T/C (second compound 0.316 µM, first compound 0.1 µM) was 89.5%. The viability, T/C (second compound 1 µM, first compound 0.000316 µM) was 84%, the viability, T/C (second compound 1 µM, first compound 0.001 µM) was 105% and the viability, T/C (second compound 1 µM, first compound 0.00316 µM) was 121%. It also gave a viability, T/C (second compound 1 µM, first compound 0.01 µM) of 94.8%, a viability, T/C (second compound 1 µM, first compound 0.0316 µM) of 90.8% and a viability, T/C (second compound 1 µM, first compound 0.1 µM) of 70.6%. The viability, T/C (second compound 3.16 µM, first compound 0.000316 µM) was 101%, the viability, T/C (second compound 3.16 µM, first compound 0.001 µM) was 102% and the viability, T/C (second compound 3.16 µM, first compound 0.00316 µM) was 84.3%. The viability, T/C (second compound 3.16 µM, first compound 0.01 µM) was 84.6%, the viability, T/C (second compound 3.16 µM, first compound 0.0316 µM) was 61.7% and the viability, T/C (second compound 3.16 µM, first compound 0.1 µM) was 90%. For the same compound, the viability, T/C (second compound 10 µM, first compound 0.000316 µM) was 128%, the viability, T/C (second compound 10 µM, first compound 0.001 µM) was 92.7% and the viability, T/C (second compound 10 µM, first compound 0.00316 µM) was 85.4%. The viability, T/C (second compound 10 µM, first compound 0.01 µM) was 105%, the viability, T/C (second compound 10 µM, first compound 0.0316 µM) was 78.7% and the viability, T/C (second compound 10 µM, first compound 0.1 µM) was 95.8%.
In the case of `COc1cccc2c1C(=O)c1c(O)c3c(c(O)c1C2=O)CC(O)(C(=O)CO)CC3OC1CC(N)C(O)C(C)O1` (stereo not given), the viability, T/C (compound 0.0316 µM) was 68.8% and 69.1% and 56.6%, the viability, T/C (compound 0.1 µM) was 39.8% and 38.5% and 102% and the viability, T/C (compound 0.316 µM) was 25.9% and 33.7% and 25.3%. The viability, T/C (compound 1 µM) was 23.2% and 22.7% and 24.1%, the viability, T/C (compound 3.16 µM) was 7.61% and 6.31% and 3.97% and the viability, T/C (compound 10 µM) was 6.95% and 3.94% and 4.69%. For the same compound, the pIC50 (curve of compound) was 7.15 and 7.10 and 6.73.
In the case of `C#Cc1c(F)ccc2cc(O)cc(-c3ncc4c(N5CC6CCC(C5)N6)nc(OCC56CCCN5CC(F)C6)nc4c3F)c12` (stereo not given), the viability, T/C (compound 0.0316 µM) was 94.5% and 100% and 95%, the viability, T/C (compound 0.1 µM) was 109% and 87.3% and 101% and the viability, T/C (compound 0.316 µM) was 78.4% and 86.1% and 85.4%. The viability, T/C (compound 1 µM) was 59.5% and 69% and 70.2%, the viability, T/C (compound 3.16 µM) was 64.2% and 46.4% and 44% and the viability, T/C (compound 10 µM) was 28.9% and 34.7% and 36.1%. For the same compound, the pIC50 (curve of compound) was 5.42 and 5.55 and 5.60.
With `CNCc1ccc(-c2[nH]c3cc(F)cc4c3c2CCNC4=O)cc1` the viability, T/C (compound 0.0316 µM) was 114% and 107% and 98.2%, the viability, T/C (compound 0.1 µM) was 119% and 78.9% and 107% and the viability, T/C (compound 0.316 µM) was 92.8% and 87.7% and 94.1%. For the same compound, the viability, T/C (compound 1 µM) was 88% and 96% and 108%, the viability, T/C (compound 3.16 µM) was 94% and 139% and 114% and the viability, T/C (compound 10 µM) was 109% and 116% and 90.9%. For the same compound, the pIC50 (curve of compound) was less than 5.00.
With `C=CCn1c(=O)c2cnc(Nc3ccc(N4CCN(C)CC4)cc3)nc2n1-c1cccc(C(C)(C)O)n1` the viability, T/C (compound 0.00316 µM) was 104% and 93.2% and 96.4%, the viability, T/C (compound 0.01 µM) was 122% and 109% and 68.7% and the viability, T/C (compound 0.0316 µM) was 98.9% and 94.2% and 106%. The viability, T/C (compound 0.1 µM) was 87.7% and 94.9% and 106%, the viability, T/C (compound 0.316 µM) was 90.8% and 93.2% and 71.3% and the viability, T/C (compound 1 µM) was 33.3% and 32.5% and 27.3%. For the same compound, the pIC50 (curve of compound) was 6.16 and 6.14 and 6.26.
